In US11078206B2, “Amino-fluoropiperidine derivatives as kinase inhibitor” (Daewoong Pharmaceutical Co., Ltd., priority 2017, dated 2021) one finds IC50 data, which are given here for twelve molecules.

Assay [1] deals with Recombinant purified human JAK3 (Homo sapiens (Human), UniProt P52333). The assay can be described thus: JAK3 kinase inhibitory activity (ADP Glo assay). Particulars: read-out: JAK3 IC50, ATP 5 uM, 1 hour 30° C. Background: In ADP-Glo the light output rises with the ADP produced.
Chain of Recombinant purified human JAK3 (P52333 whole entry): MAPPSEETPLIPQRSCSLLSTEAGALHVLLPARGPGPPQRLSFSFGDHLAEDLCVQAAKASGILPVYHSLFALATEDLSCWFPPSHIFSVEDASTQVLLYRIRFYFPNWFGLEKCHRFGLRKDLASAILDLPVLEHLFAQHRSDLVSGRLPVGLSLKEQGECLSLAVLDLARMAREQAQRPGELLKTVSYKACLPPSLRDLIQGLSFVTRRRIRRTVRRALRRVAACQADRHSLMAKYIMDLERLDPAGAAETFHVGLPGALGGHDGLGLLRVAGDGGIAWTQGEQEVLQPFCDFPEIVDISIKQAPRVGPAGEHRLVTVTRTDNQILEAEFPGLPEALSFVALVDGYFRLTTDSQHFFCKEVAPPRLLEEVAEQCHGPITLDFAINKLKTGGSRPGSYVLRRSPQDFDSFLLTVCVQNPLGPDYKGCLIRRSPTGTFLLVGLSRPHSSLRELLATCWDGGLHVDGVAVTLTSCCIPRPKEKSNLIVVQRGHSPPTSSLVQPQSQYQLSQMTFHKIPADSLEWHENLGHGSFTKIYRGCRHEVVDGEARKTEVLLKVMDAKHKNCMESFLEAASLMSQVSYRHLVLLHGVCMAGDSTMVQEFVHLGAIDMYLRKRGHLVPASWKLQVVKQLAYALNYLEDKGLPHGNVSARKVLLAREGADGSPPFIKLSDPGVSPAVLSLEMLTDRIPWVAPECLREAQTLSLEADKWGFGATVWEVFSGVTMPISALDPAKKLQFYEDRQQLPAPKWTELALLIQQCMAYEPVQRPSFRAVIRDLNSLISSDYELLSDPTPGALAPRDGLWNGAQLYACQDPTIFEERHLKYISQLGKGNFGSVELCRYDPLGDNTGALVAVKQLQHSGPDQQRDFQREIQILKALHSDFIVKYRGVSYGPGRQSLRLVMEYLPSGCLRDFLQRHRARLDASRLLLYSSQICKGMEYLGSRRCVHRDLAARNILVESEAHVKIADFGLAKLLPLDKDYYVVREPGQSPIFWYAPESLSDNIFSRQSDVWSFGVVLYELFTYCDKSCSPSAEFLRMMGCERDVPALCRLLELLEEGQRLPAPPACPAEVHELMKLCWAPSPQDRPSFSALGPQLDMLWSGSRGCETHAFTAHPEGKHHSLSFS
Assay [2] addresses Recombinant purified human BTK (Homo sapiens (Human), UniProt Q06187). Description: BTK kinase inhibitory activity (ADP Glo assay). Particulars: read-out: BTK IC50, ATP 10 uM, 1 hour 30° C.
The subject of assay [3] is JAK3 kinase (STAT5 phosphorylation induced by IL-2 in HT-2 cells). The assay can be described thus: JAK3-mediated cell assay (HT-2/IL-2 assay), STAT5 phosphorylation. The format is cell-based. To be noted: HT2, compound 30 minutes, IL-2 20 ng/ml 10 minutes, HTRF phospho-STAT5 (Tyr694). As to the method: The inhibitory activities against JAK3 kinase at the cellular level were measured for the compounds prepared in the Examples through in vitro analysis of STAT5 phosphorylation induced by IL-2 stimulation in HT-2 cells. Specifically, STAT5 phosphorylation was analyzed using HTRF®phospho-STAT5 (Tyr694) assay kit (Cisbio, 64AT5PEG), which was purchased from Cisbio. HT-2 cells were cultured for 2 hours in growth factor-free medium. The cultured HT-2 cells were dispensed into 96-well plates by 50 ul so as to be a density of 2.5×10^5 cells/well. The compounds prepared in the previous Examples were prepared so as to be finally a 0.3% DMSO aqueous solution, and HT-2 cells was treated with the compounds for 30 minutes. After the compound treatment, IL-2 was prepared so as to be finally a concentration of 20 ng/ml, and HT-2 cells was treated for 10 minutes. The cells were then disrupted by treating lysis buffers for 30 minutes. The level of STAT5 phosphorylation was measured according to the instructions of HTRF® phospho-STAT5 assay kit, and the inhibitory activity of the compounds according to the invention was calculated. For the analysis of the results of each compound, Microsoft Excel was used, and IC50 values were calculated by SigmaPlot software.
On the technique in general: Time-resolved FRET reads energy transfer from a long-lived donor to a nearby acceptor.

Chain of Recombinant purified human BTK (Q06187 whole entry): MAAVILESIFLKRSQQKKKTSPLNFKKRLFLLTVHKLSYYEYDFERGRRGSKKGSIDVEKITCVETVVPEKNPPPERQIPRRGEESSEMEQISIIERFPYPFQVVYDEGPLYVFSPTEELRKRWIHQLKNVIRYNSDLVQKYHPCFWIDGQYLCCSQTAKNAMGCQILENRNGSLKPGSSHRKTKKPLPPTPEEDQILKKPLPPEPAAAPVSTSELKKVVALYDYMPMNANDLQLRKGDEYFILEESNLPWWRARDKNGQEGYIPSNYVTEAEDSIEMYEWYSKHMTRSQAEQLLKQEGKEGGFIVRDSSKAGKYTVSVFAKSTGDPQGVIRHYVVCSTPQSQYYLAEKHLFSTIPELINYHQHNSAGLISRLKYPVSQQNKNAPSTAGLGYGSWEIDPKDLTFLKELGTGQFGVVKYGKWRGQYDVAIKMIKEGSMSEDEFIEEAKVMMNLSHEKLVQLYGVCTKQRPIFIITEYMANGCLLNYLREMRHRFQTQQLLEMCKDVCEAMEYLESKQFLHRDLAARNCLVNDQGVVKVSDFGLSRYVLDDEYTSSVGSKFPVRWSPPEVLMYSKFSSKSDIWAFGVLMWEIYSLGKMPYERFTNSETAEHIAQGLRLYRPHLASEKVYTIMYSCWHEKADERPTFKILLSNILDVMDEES

As a reminder, the IC50 is the midpoint of a concentration-inhibition curve. For the molecule `C=CC(=O)N1CC[C@@H](F)[C@@H](Nc2nc(Nc3cnn(CC)c3)nc3[nH]cc(C#N)c23)C1` [Example 6, 4-((3S,4R)-1-acryloyl-4-fluoropiperidin-3-ylamino)-2-(1-ethyl-1H-pyrazol-4-ylamino)-7H-pyrrolo[2,3-d]pyrimidine-5-carbonitrile], the 50% inhibitory concentration (IC50) amounted to 0.2 nM in assay [1] and 0.9 nM in assay [2].

As for `C=CC(=O)N1CC[C@H](F)[C@@H](Nc2nc(Nc3cnn(CC)c3)nc3[nH]cc(Cl)c23)C1` [Example 12, 1-((3S,4S)-3-(5-chloro-2-(1-ethyl-1H-pyrazol-4-ylamino)-7H-pyrrolo[2,3-d]pyrimidin-4-ylamino)-4-fluoropiperidin-1-yl)prop-2-en-1-one], the IC50 in assay [1] was found to be 0.2 nM; in assay [2], 1 nM; in assay [3], 25.4 nM.

`C=CC(=O)N1CC[C@@H](F)[C@@H](Nc2nc(Nc3cnn(C4CC4)c3)nc3[nH]cc(Cl)c23)C1` [Example 3, 1-((3S,4R)-3-(5-chloro-2-(1-cyclopropyl-1H-pyrazol-4-ylamino)-7H-pyrrolo[2,3-d]pyrimidin-4-ylamino)-4-fluoropiperidin-1-yl)prop-2-en-1-one]: the IC50 was 0.1 nM in assay [1] and 0.8 nM in assay [2].

Take `C=CC(=O)N1CC[C@@H](F)[C@@H](Nc2nc(Nc3cnoc3)nc3[nH]cc(C#N)c23)C1` [Example 9, 4-((3S,4R)-1-acryloyl-4-fluoropiperidin-3-ylamino)-2-(isoxazol-4-ylamino)-7H-pyrrolo[2,3-d]pyrimidine-5-carbonitrle]: the concentration for half-maximal inhibition (IC50) in assay [1] is 0.3 nM; in assay [2], 2.2 nM; in assay [3], 282 nM.

In the case of `C=CC(=O)N1CC[C@@H](F)[C@@H](Nc2nc(Nc3cnn(C4CC4)c3)nc3[nH]cc(C#N)c23)C1` [Example 8, 4-((3S,4R)-1-acryloyl-4-fluoropiperidin-3-ylamino)-2-(1-cyclopropyl-1H-pyrazol-4-ylamino)-7H-pyrrolo[2,3-d]pyrimidine-5-carbonitrle], the 50% inhibitory concentration (IC50) was determined as 0.3 nM in assay [1] and 0.9 nM in assay [2].

With `C=CC(=O)N1CC[C@@H](F)[C@@H](Nc2nc(Nc3cnoc3)nc3[nH]cc(C)c23)C1` [Example 11, 1-((3S,4R)-4-fluoro-3-(2-(isoxazol-4-ylamino)-5-methyl-7H-pyrrolo[2,3-d]pyrimidin-4-ylamino)piperidin-1-yl)prop-2-en-1-one], the values for the 50% inhibitory concentration (IC50) in assay [1], in assay [2] and in assay [3] were 0.7 nM, 9.1 nM and 248 nM, respectively.

As to `C=CC(=O)N1CC[C@@H](F)[C@@H](Nc2nc(Nc3cnn(CC(F)F)c3)nc3[nH]cc(C#N)c23)C1` [Example 7, 4-((3S,4R)-1-acryloyl-4-fluoropiperidin-3-ylamino)-2-(1-(2,2-difluoroethyl)-1H-pyrazol-4-ylamino)-7H-pyrrolo[2,3-d]pyrimidine-5-carbonitrle], the IC50 in assay [1] stood at 0.2 nM; in assay [2] it was 0.8 nM.

On to `C=CC(=O)N1CC[C@@H](F)[C@@H](Nc2nc(Nc3cnn(CC)c3)nc3[nH]cc(C)c23)C1` [Example 10, 1-((3S,4R)-3-(2-(1-ethyl-1H-pyrazol-4-ylamino)-5-methyl-7H-pyrrolo[2,3-d]pyrimidin-4-ylamino)-4-fluoropiperidin-1-yl)prop-2-en-1-one], for which the concentration for half-maximal inhibition (IC50) came to 0.5 nM in assay [1], 3.3 nM in assay [2] and 242 nM in assay [3].

On to `C=CC(=O)N1CC[C@@H](F)[C@@H](Nc2nc(Nc3cnsc3)nc3[nH]cc(Cl)c23)C1` [Example 5, 1-((3S,4R)-3-(5-chloro-2-(isothiazol-4-ylamino)-7H-pyrrolo[2,3-d]pyrimidin-4-ylamino)-4-fluoropiperidin-1-yl)prop-2-en-1-one], for which the IC50 in assay [1] came out at 0.6 nM; in assay [2], 3.9 nM; in assay [3], 288 nM.

With `C=CC(=O)N1CC[C@@H](F)[C@@H](Nc2nc(Nc3cnoc3)nc3[nH]cc(Cl)c23)C1` [Example 4, 1-((3S,4R)-3-(5-chloro-2-(isoxazol-4-ylamino)-7H-pyrrolo[2,3-d]pyrimidin-4-ylamino)-4-fluoropiperidin-1-yl)prop-2-en-1-one], the IC50 came out at 0.2 nM in assay [1], 3.2 nM in assay [2] and 51.8 nM in assay [3].

Take `C=CC(=O)N1CC[C@@H](F)[C@@H](Nc2nc(Nc3cnn(CC(F)F)c3)nc3[nH]cc(Cl)c23)C1` [Example 2, 1-((3S,4R)-3-(5-chloro-2-(1-(2,2-difluoroethyl)-1H-pyrazol-4-ylamino)-7H-pyrrolo[2,3-d]pyrimidin-4-ylamino)-4-fluoropiperidin-1-yl)prop-2-en-1-one]: the IC50 in assay [1] amounted to 0.1 nM; in assay [2] it was 0.8 nM; in assay [3], 49 nM.

As for `C=CC(=O)N1CC[C@@H](F)[C@@H](Nc2nc(Nc3cnn(CC)c3)nc3[nH]cc(Cl)c23)C1` [Example 1, 1-((3S,4R)-3-(5-chloro-2-(1-ethyl-1H-pyrazol-4-ylamino)-7H-pyrrolo[2,3-d]pyrimidin-4-ylamino)-4-fluoropiperidin-1-yl)prop-2-en-1-one], the IC50 in assay [1] worked out at 0.1 nM; in assay [2], 0.6 nM; in assay [3], 30.9 nM.
